The IC50 is the point on the concentration scale where inhibition reaches its midpoint. A low value points to higher potency. A word on the pIC50: it is −log10 of the IC50, conventionally taken in molar units.

Molecules are shown by their SMILES. pIC50: −log10 of the molar value.

The nature of series [1]: Cytotoxicity evaluation (CCK8), LLC. The following applies: mouse, LLC lung cancer cells.
Method: (§5) Cells with a density of 2000-8000 cells per 100 μL medium were seeded in 96-well plates (Falcon, CA) and incubated for 24 hours, then treated with drugs having different concentration gradient (at least 4 replicates per concentration) and incubated at 37° C. in 5% CO2 incubator for 72 hours. Then cell viability was detected by CCK8 method. That is to say, add 10 μL CCK8 to each well and incubate for 0.33-2 h, and the OD values are read by microplate reader at 450 nm. The inhibition rate on cell survival of compounds with each concentration were calculated.
(§6) Inhibition rate on cell survival=(OD value of groups with each concentration/OD
(§7) value of control group)×100%±standard deviation.
(§8) The IC50 of drugs were calculated using GraphPad Prism 5.0.
Series [2] in a line: Cytotoxicity evaluation (CCK8), 293. As to conditions: human.
The target of series [3] is T1, human PGE2 receptor EP4 subtype (hEP4) (Homo sapiens, UniProt P35408).
T1 construct: expressed in transfected cells; host or cells: CHO-K1-Gα16
T1 sequence (P35408 whole entry): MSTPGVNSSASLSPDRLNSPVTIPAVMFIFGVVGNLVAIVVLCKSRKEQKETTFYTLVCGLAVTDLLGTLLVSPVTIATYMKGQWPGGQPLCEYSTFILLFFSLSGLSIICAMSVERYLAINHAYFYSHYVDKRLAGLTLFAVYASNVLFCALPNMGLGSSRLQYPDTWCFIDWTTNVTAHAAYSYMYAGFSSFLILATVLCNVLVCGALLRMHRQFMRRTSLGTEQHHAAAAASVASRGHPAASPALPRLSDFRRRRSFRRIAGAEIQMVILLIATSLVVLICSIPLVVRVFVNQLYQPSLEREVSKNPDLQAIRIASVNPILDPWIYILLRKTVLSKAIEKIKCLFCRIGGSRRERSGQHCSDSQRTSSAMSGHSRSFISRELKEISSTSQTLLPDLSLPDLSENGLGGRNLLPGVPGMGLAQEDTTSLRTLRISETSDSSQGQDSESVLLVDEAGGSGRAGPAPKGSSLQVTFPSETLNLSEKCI
Put plainly: Calcium flux of human prostaglandin E2 receptor EP4 subtype. The class given is cell-based. As to conditions: CHO-K1-Gα16 cells overexpressing hEP4, calcium flux activated by prostaglandin E2; read-out: hEP4 Ca^2+ IC50. Here is the method: (§1) CHO-K1-Gα16 cells at the logarithmic growth phase were transfected with EP4 overexpressing vector by Lipofectamine 2000 and then seeded in a 96-well plate (Falcon, CA) and cultured at 20000 cells per 100 μL culture medium overnight. On the second day, every single well were added with 100 μL calcium 5 detection reagents (Molecular Devices) and incubated in incubator at 37° C., 5% CO2 for 45 minutes. The compounds were diluted in HBSS detection buffer, then added to 96-well plates. After incubated for 20 min at room temperature away from light, certain concentration of prostaglandin E2 was used to activate calcium flux of cells for detection (Flexstation 3, MD, CA).
(§2) Calculate the IC50 of the compounds of the invention in inhibiting the calcium flux of human PGE2 receptor EP4 subtype (hEP4) and mouse PGE2 receptor EP4 subtype (mEP4) (i.e. the concentration of drugs at which the intracellular Ca^2+ flux is inhibited by half after overexpressing hEP4 and mEP4 receptors in CHO-K1-Gα16 cells). The IC50 of the drugs were calculated using GraphPad Prism 5.
For orientation: Calcium flux is commonly read through the fluorescence of an indicator in the cells.

Series [4] can be described thus: Cytotoxicity evaluation (CCK8), EMT-6. The following applies: mouse, EMT-6 breast cancer cells.
Method: as §5, §6, §7, §8
Series [5] concerns the target T2, mouse PGE2 receptor EP4 subtype (mEP4) (Mus musculus, UniProt P32240).
T2 construct: expressed in transfected cells; host or cells: CHO-K1-Gα16
As to the kind of experiment: Calcium flux of mouse prostaglandin E2 receptor EP4 subtype. Format: cell-based. The following applies: CHO-K1-Gα16 cells overexpressing mEP4, calcium flux activated by prostaglandin E2; read-out: mEP4 Ca^2+ IC50. On the procedure:
as §1, §2

Series [6] can be described thus: Cytotoxicity evaluation (CCK8), CT26. The following applies: mouse, CT26 intestinal cancer cells.
Method: as §5, §6, §7, §8
Series [7] relates to mouse colon cancer cells CT26. As to the kind of experiment: CT26 subcutaneous tumor-bearing model, Balb/c mice. Format: in vivo. As to conditions: female Balb/c mice, 75 mg/kg/day, 14 days, vs negative control, FIG. 3. Here is the method:
2×10^6 mouse colon cancer cells CT26 were subcutaneously injected into right side of each mouse's back (female Balb/c mouse, 6-8 weeks). The length and width of subcutaneous tumors in the back of mice were measured using vernier calipers, and tumor volume (mm^3)=(length(mm)×width(mm)×width(mm)×n)/6 was calculated. […] The volume of subcutaneous tumors on the back of mice was measured and counted twice a week. Continuous administrated for a period of 14 days and the changes of tumor volumes were recorded.
Mouse colon cancer cells MC38, pancreatic cancer cells Pan02, breast cancer cells 4T1, prostate cancer cells RM-1 and colon cancer cells CT26 were cultivated to required amount. Then, cells at a cell density of 5×10^5-2×10^6 were subcutaneously injected into right side of the back of selected female C57BL/6 mice aging 6-8 weeks (MC38, Pan02), male C57BL/6 mice aging 6-8 weeks (RM-1), female Balb/c mice aging 6-8 weeks (4T1, CT26) and female Balb/c nude mice aging 6-8 weeks (CT26). The length and width of subcutaneous tumors in the backs of mice were measured using vernier calipers, and tumor volume(mm^3)=(length(mm)×width(mm)×width(mm)×n)/6 was calculated. […] The volume of subcutaneous tumors on the back of mice was measured and counted 2-4 times a week. Continuous administrated for 12-22 days and the changes of tumor volumes were recorded.

A short description of series [8]: Cytotoxicity evaluation (CCK8), PANC02. As to conditions: mouse, PANC02 pancreatic cancer cells.
Method: as §5, §6, §7, §8
Series [9] is described as follows: Cytotoxicity evaluation (CCK8), MOSJ. As to conditions: mouse, MOSJ osteosarcoma cells.
Method: as §5, §6, §7, §8
The target in series [10] is T3, human prostaglandin E2 receptor EP2 subtype (Homo sapiens, UniProt P43116).
T3 construct: expressed in transfected cells; host or cells: CHO-K1-Gα16
T3 sequence (P43116 whole entry): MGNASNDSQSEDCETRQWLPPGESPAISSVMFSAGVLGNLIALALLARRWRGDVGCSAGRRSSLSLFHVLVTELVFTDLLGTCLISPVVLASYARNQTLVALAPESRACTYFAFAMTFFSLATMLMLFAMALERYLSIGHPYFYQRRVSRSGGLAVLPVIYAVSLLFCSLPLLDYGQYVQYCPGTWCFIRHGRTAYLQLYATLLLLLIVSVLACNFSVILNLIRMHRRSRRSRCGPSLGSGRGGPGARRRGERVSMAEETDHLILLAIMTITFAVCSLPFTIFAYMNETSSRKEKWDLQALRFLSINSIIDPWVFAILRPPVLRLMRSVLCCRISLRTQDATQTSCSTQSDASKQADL
Put plainly: Calcium flux of human prostaglandin E2 receptor EP2 subtype. Format: cell-based. The following applies: CHO-K1-Gα16 cells overexpressing human EP2, activated by prostaglandin E2; read-out: hEP2 Ca^2+ IC50. Here is the method: (§3) CHO-K1-Gα16 cells at the logarithmic growth phase were transfected with human prostaglandin E2 Receptor subtypes EP1, EP2 or EP3 overexpressing vector by Lipofectamine 2000, then seeded in a 96-well plate (Falcon, CA) at a density of 20000 cells per 100 μL culture medium for overnight culture. On the second day, every single well were added with 100 μL calcium 5 detection reagents (Molecular Devices) and incubated in incubator at 37° C., 5% CO2 for 45 minutes. The compounds were diluted with HBSS detection buffer, then were added to 96-well plates. After 20 min incubation at room temperature in the dark, prostaglandin E2 at certain concentration was used to activate calcium flux of cells for detection (Flexstation 3, MD, CA).
(§4) Calculate the IC50 of the compounds of the invention in inhibiting the calcium flux of human EP1, EP2, and EP3 receptor (i.e. the concentration of drugs at which the intracellular Ca^2+ flux being inhibited by half after overexpressing human EP1, EP2, and EP3 receptors in CHO-K1-Gα16 cells). The IC50 of the drugs were calculated using GraphPad Prism 5.

Series [11] concerns the target T4, human prostaglandin E2 receptor EP1 subtype (Homo sapiens, UniProt P34995).
T4 construct: expressed in transfected cells; host or cells: CHO-K1-Gα16
T4 sequence (P34995 1-402): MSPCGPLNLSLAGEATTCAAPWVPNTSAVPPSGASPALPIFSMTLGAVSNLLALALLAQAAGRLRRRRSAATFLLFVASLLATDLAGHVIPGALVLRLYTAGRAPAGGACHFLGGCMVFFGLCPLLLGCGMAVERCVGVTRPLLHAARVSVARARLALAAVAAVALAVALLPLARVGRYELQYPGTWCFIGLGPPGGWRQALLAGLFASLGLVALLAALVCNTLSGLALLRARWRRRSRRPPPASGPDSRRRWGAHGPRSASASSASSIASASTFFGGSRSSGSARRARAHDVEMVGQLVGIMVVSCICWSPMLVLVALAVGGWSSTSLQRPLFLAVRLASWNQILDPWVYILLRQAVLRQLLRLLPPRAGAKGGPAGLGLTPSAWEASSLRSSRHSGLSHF
As to the kind of experiment: Calcium flux of human prostaglandin E2 receptor EP1 subtype. Format: cell-based. The following applies: CHO-K1-Gα16 cells overexpressing human EP1, activated by prostaglandin E2; read-out: hEP1 Ca^2+ IC50. On the procedure:
as §3, §4

Series [12] has as its target T5, human prostaglandin E2 receptor EP3 subtype (Homo sapiens, UniProt P43115).
T5 construct: expressed in transfected cells; host or cells: CHO-K1-Gα16
T5 sequence (P43115 1-390): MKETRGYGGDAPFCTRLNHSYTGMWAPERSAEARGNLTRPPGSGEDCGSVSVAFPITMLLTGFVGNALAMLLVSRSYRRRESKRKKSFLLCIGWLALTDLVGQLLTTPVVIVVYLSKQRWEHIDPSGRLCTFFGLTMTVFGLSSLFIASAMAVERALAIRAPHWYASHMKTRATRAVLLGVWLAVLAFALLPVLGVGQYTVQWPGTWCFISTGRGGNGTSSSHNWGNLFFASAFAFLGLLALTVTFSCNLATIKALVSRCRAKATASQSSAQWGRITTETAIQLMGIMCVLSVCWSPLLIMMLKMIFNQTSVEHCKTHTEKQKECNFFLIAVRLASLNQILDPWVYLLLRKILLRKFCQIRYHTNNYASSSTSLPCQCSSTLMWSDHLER
Put plainly: Calcium flux of human prostaglandin E2 receptor EP3 subtype. Format: cell-based. As to conditions: CHO-K1-Gα16 cells overexpressing human EP3, activated by prostaglandin E2; read-out: hEP3 Ca^2+ IC50. Here is the method: as §3, §4

T2 sequence (P32240 whole entry): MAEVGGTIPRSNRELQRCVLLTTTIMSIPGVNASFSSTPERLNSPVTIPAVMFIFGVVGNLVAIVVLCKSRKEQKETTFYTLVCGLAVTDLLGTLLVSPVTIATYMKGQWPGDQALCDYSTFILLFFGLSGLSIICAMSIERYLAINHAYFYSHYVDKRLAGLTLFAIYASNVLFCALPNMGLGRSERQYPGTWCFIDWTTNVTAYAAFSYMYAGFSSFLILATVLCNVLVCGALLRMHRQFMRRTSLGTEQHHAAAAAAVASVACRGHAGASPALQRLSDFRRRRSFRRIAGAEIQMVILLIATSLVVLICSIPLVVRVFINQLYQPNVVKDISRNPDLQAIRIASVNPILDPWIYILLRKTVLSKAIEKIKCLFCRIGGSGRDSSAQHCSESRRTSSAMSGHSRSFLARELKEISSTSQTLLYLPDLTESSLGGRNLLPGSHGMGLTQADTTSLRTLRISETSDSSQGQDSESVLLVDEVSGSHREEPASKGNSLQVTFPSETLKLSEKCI

Regarding `C[C@H](NC(=O)c1c(Cc2ccc(C(F)(F)F)cc2)sc2c1CCOC2)c1ccc(C(=O)O)cc1` [YJ115, (S)-4-(1-(2-(4-(trifluoromethyl)benzyl)-5,7-dihydro-4H-thieno[2,3-c]pyran-3-carboxamido)ethyl)benzoic Acid], the IC50 at 72 h in series [1], in series [2], in series [4], in series [6], in series [8] and in series [9] was above 100 µM throughout. The pIC50 in [3] and in [5] was above 7.00 in each case. In addition, the “Inhibitory effect on growth of subcutaneous CT26 colon cancer” value (shortened to “Inhibitory effect on growth”) in series [7] is given as “able to suppress the growth”.
With `C[C@H](NC(=O)c1c(CCc2cccc(C(F)(F)F)c2)sc2c1CCOC2)c1ccc(C(=O)O)cc1` [YJ112, (S)-4-(1-(2-(3-(trifluoromethyl)phenethyl)-5,7-dihydro-4H-thieno[2,3-c]pyran-3-carboxamido)ethyl)benzoic Acid], the IC50 at 72 h in [1], in [2], in [4], in series [6], in series [8] and in series [9] was above 100 µM in each case. Also, the pIC50 in series [10] was below 5.00; in [11], below 5.00; in [12] it was below 5.00; in series [3], above 7.00; in [5], 6.00 to 7.00.
As for `C[C@H](NC(=O)c1c(C#Cc2ccc(F)cc2)sc2c1CCCCC2)c1ccc(C(=O)O)cc1` [YJ104, (S)-4-(1-(2-((4-fluorophenyl)ethynyl)-5,6,7,8-tetrahydro-4H-cyclohepta[b]thiophene-3-carboxamido)ethyl)benzoic Acid], the IC50 at 72 h in [1], in [2], in series [4], in series [6], in series [8] and in series [9] was above 100 µM throughout. The pIC50 in [10] was below 5.00; in series [11], below 5.00; in series [12] it was below 5.00; in series [3], above 7.00; in series [5] it was 6.00 to 7.00.
As to `O=C(O)c1ccc(CNC(=O)c2c(Cc3ccc(F)cc3)sc3c2CCOC3)cc1` [YJ120, 4-((2-(4-fluorobenzyl)-4,7-dihydro-5H-thieno[2,3-c]pyran-3-carboxamido)methyl)benzoic Acid], the IC50 at 72 h in [1], in series [2], in series [4], in series [6], in series [8] and in series [9] was above 100 µM throughout. The pIC50 in [5] is above 7.00. Besides, the “Inhibitory effect on growth” value in [7] is on record as “able to suppress the growth”.
On to `C[C@H](NC(=O)c1c(CCc2ccc(F)cc2)sc2c1CCOC2)c1ccc(C(=O)O)cc1` [YJ106, (S)-4-(1-(2-(4-fluorophenethyl)-4,7-dihydro-5H-thieno[2,3-c]pyran-3-carboxamido)ethyl)benzoic Acid], for which the IC50 at 72 h in series [1], in [2], in [4], in [6], in series [8] and in [9] was above 100 µM in each case. Moreover, the pIC50 in series [3] and in series [5] was above 7.00 throughout. Besides, the “Inhibitory effect on growth” value in series [7] is reported as “able to suppress the growth”.
Turning to `C[C@H](NC(=O)c1c(NCc2ccc(C(F)(F)F)cc2)sc2c1CCOC2)c1ccc(C(=O)O)cc1` [YJ121, (S)-4-(1-(2-((4-(trifluoromethyl)benzyl)amino)-5,7-dihydro-4H-thieno[2,3-c]pyran-3-carboxamido)ethyl)benzoic Acid], the IC50 at 72 h in [1], in [2], in series [4], in [6], in series [8] and in series [9] was 10 to 100 µM in each case. The pIC50 in series [10] was 5.00 to 6.00; in series [11] it was 5.00 to 6.00; in series [12] it was 5.00 to 6.00; in [3], above 7.00; in series [5] it was above 7.00.
In the case of `C[C@H](NC(=O)c1c(CCc2ccc(F)cc2)sc2c1CC(C)(C)OC2)c1ccc(C(=O)O)cc1` [YJ110, (S)-4-(1-(2-(4-fluorophenethyl)-5,5-dimethyl-5,7-dihydro-4H-thieno[2,3-c]pyran-3-carboxamido)ethyl)benzoic Acid], the IC50 at 72 h in series [1], in series [2], in [4], in series [6], in series [8] and in series [9] was above 100 µM each time. In addition, the pIC50 in [10] was below 5.00; in series [11], below 5.00; in [12] it was below 5.00; in [3] it was above 7.00; in series [5], above 7.00.

The values are drawn from US20210139497A1, “THIENOCYCLIC COMPOUND AND SYNTHESIS METHOD THEREFOR AND APPLICATION THEREOF” (SHANGHAI YUYAO BIOTECH LTD., priority 2017, published 2021).
